Test results reported in patent publication US10000452B1, “Quinolone-based compounds, formulations, and uses thereof” (University of South Florida, priority 2016, dated 2018).
Converted amounts (≈) assume the structure as drawn. “And” between values parts separate entries of the source, which are not always exact repeats. Equal entries are not always repeated. Where two headings read alike, the source gives them in different places.

Legend:
[1] = system: P. berghei-GFP parasites; experiment: modified Thompson test; assay type: in vivo, P. berghei; mice; settings: for No. of Cures: survival to day 30 PI with parasitemia <1%; for day mice were sacrificed: Example 2: 10 mg/kg oral days 3, 4, 5, controls sacrificed day 13; for % inhibition on day 6 PE: Example 2: 10 mg/kg oral days 3, 4, 5 in HEC/Tween, Giemsa-stained smears
Description: Mice were infected with 1×10^6 P. berghei-GFP parasites and compounds were dosed orally on days 3, 4 and 5 PI with a dose of 10 mg/kg of compound suspended or dissolved in HEC/Tween or PEG 400. Parasitemia was observed by flow cytometry on days 3, 6, 9, 13, 21, and 30 PI. Compounds with animal survival up to day 30 PI and parasitemia levels of less than 1% on day 30 PI were considered to be cures. Lastly, animals with more than 40% parasitemia levels were euthanized.
On days 3, 6, 9, 13, 21, and 30 PE, parasitemia was monitored by Giemsa-stained blood smears. Both compounds were evaluated by the reduction of parasitemia on day 6 PE and the survival up to day 30 PE.

[2] = system: malarial strain TM90-C2B (mefloquine, chloroquine, atovaquone, and pyrimethamine-resistant); experiment: microbe, parasite or virus in culture; assay type: cell-based, P. falciparum; settings: for EC50: Plasmodium falciparum
Description: Ideally, the RI of a compound should lie between 0.3 and 3.0 in order to avoid rapidly inducing resistance in the parasite. […]

[3] = system: J774 mammalian cells; experiment: cytotoxicity to J774 cells; assay type: cell-based; settings: Mus musculus
Description: This allowed a simplified method for comparing the different assays being simultaneously run. Additionally, each compound was also tested for cytotoxicity using mammalian J774 cell lines in a 96-well plate format.^12-14, 16

[4] = system: malarial strain W2 (pyrimethamine and chloroquine-resistant); experiment: in vitro antimalarial activity against multidrug resistant strain W2; assay type: cell-based, P. falciparum; settings: Plasmodium falciparum
[5] = system: P. berghei sporozoites expressing luciferase; experiment: in vitro liver stage activity, luciferase sporozoites infecting HEPG2 hepatoma cells; assay type: cell-based; settings: Plasmodium berghei
[6] = system: Pb-infected mice; experiment: in vivo efficacy scouting assay against blood stages; set-up: species or system P. berghei; mice; settings: for inhibition in vivo at 50 mg/kg: Plasmodium berghei, po, 144 h, read-out: % Inhibition Day 6 PI; for activities in these scout assays / % Inhibition Day 3 PI / % Inhibition Day 6 PI: single oral 50 mg/kg dose 1 day PI; for activities in these scout assays: result in words; for % Inhibition Day 3 PI / % Inhibition Day 6 PI: vs untreated animals
Description: The screening involved a single oral 50 mg/kg dose 1 day post infection (PI) and an assessment of parasitemia on days 3 PI and 6 PI (Table 6).
The screening was performed by treating two infected mice with a single 50 mg/kg oral dose of test compound suspended in PEG400 on day 1 postexposure (PE) followed by assessing parasitemia on days 3 and 6 PE.

[7] = lipophilicity log D at pH 7.4; assay type: physicochemical; settings: octanol/water
How it was run: (§1)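 Aqueous solubility and log D (pH 7.4) determined by LC/MS-based assays; solubility examined at more than one pH.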

[8] = aqueous solubility (LC/MS- or HPLC-based assay); assay type: physicochemical
How it was run: as §1

[9] = molecular target: P. berghei sporozoites expressing luciferase; settings: previous work; read-out: liver stage activity; cited from earlier work
[10] = system: malarial strain TM90-C2B (mefloquine, chloroquine, atovaquone, and pyrimethamine-resistant); settings: previous work; cited from earlier work
[11] = 10 mg/kg oral on days 3, 4 and 5 PI
[12] = TM90, read-out: EC50 TM90-C2B (nM)
[13] = Example 2: two mice, single 50 mg/kg oral dose in PEG400 on day 1 PE
[14] = aqueous solution, pH 2, simulated gastric fluid, pH 2.0, read-out: Solubility pH 2.0
[15] = aqueous solution, pH 6.5, aqueous buffer, pH 6.5, read-out: Solubility pH 6.5
[16] = 10 mg/kg oral on days 3, 4 and 5 PI, vs untreated control animals
[17] = aqueous solution (buffer not named), pH 2, simulated gastric fluid, pH 2.0, read-out: Solubility pH 2.0
[18] = aqueous solution (buffer not named), pH 6.5, aqueous buffer, pH 6.5, read-out: Solubility pH 6.5

For `O=C1C(O)=C([C@H]2CC[C@H](c3ccc(Cl)cc3)CC2)C(=O)c2ccccc21` [Atovaquone, atovaquone, reference compound], the “No. of Cures” value [1, 11] was 5/5, the EC50 ([2]; TM90, read-out: EC50 TM90-C2B) was 18400 nM and the EC50 ([3]; J774, cytotoxicity, 96 well plate format, read-out: EC50 J774) was 28.3 µM.

In the case of `CCCCc1cc2c(=O)c(C(=O)OC)c[nH]c2cc1OCCOc1ccccc1` [Compound 6b, Methyl 6-Butyl-4-oxo-7-(2-phenoxyethoxy)-1,4-dihydroquinoline-3-carboxylate, reference compound], the “day mice were sacrificed” value [1] is reported as 13, the “% inhibition on day 6 PE” value [1] is reported as “no inhibition” and the EC50 [2, 12] is reported as 7.89 nM. The EC50 ([4]; read-out: EC50 W2) was 0.039 nM, the EC50 ([5]; HepG2, text values printed in pM) was 52 pM and the “% inhibition on day 3 PE” value [6, 13] was 76.9%. The “% inhibition on day 6 PE” value [6, 13] was 49%.

For `COC(=O)c1c[nH]c2cc(CN3CCN(c4ccc(C(F)(F)F)cc4)CC3)c(OC)cc2c1=O` [Compound 8ab, Methyl 6-methoxy-4-oxo-7-((4-(4-(trifluoromethyl)phenyl)piperazin-1-yl)methyl)-1,4-dihydroquinoline-3-carboxylate], the “No. of Cures” value [1, 11] was 3 of the 5 and 3/5, the chromatographic logD [7] was 1.29 and the solubility [8, 14] was 1 to 19.9 µM (≈ 0.475 to 9.46 µg/mL). For the same molecule, the solubility [8, 15] was 1 to 19.9 µM (≈ 0.475 to 9.46 µg/mL), the EC50 ([4]; read-out: EC50 W2 (nM)) was 6.42 nM and the EC50 ([5]; HEPG2 cells) was 9580 pM. The inhibition in vivo at 50 mg/kg [6] was > 85%, the “activities in these scout assays” value [6] was “excellent activities” and the “% Inhibition Day 3 PI” value [6] was “full inhibition”. The “% Inhibition Day 6 PI” value [6] was “completely inhibited parasite growth” and the EC50 ([3]; J774, read-out: EC50 J774 (μM)) was > 20 µM.

For `O=c1c(Br)c[nH]c2cc(CN3CCN(c4ccc(F)cc4)CC3)ccc12` [Compound 8ak, 3-Bromo-7-((4-(4-fluorophenyl)piperazin-1-yl)methyl) quinolin-4(1H)-one], the “No. of Cures” value [1, 11] was 0/5, the “% Inhibition Day 6 PI” value [1, 16] was “low inhibition” and the EC50 [2, 12] was 2430 nM. For the same molecule, the chromatographic logD [7] was 2.91, the solubility [8, 17] was ≥ 80 µM and the solubility [8, 18] was 20 to 39.9 µM (≈ 8.33 to 16.6 µg/mL). The EC50 ([4]; read-out: EC50 W2 (nM)) was 812 nM, the EC50 ([5]; HEPG2 cells) was 858 pM and the EC50 ([3]; J774, read-out: EC50 J774 (μM)) was > 20 µM.

With `Cc1[nH]c2cc(CN3CCN(c4ccc(F)cc4)CC3)ccc2c(=O)c1Br` [Compound 8an, 3-Bromo-7-((4-(4-fluorophenyl)piperazin-1-yl)methyl)-2-methylquinolin-4(1H)-one] the “Avg. Day of Death” value [1, 11] was 13, the “No. of Cures” value [1, 11] was 0/5 and the inhibition in vivo at 10 mg/kg ([1]; Plasmodium berghei, in Mus musculus, 144 h, 10 mg/kg oral on days 3, 4 and 5 PI, vs untreated control animals, read-out: % Inhibition Day 6 PI) was 90.9%. For the same molecule, the EC50 [2, 12] was 25.5 nM, the chromatographic logD [7] was 2.83 and the solubility [8, 17] was ≥ 80 µM. The solubility [8, 18] was 1 to 19.9 µM (≈ 0.43 to 8.56 µg/mL), the EC50 ([4]; read-out: EC50 W2 (nM)) was 25.1 nM and the EC50 ([5]; HEPG2 cells) was 26200 pM. For the same molecule, the inhibition in vivo at 50 mg/kg [6] was > 85%, the “activities in these scout assays” value [6] was “excellent activities” and the “% Inhibition Day 3 PI” value [6] was “full inhibition”. For the same molecule, the “% Inhibition Day 6 PI” value [6] was “completely inhibited parasite growth” and the EC50 ([3]; J774, read-out: EC50 J774 (μM)) was > 20 µM.

With `Cc1[nH]c2cc(CN3CCN(c4ccc(F)cc4)CC3)ccc2c(=O)c1Cl` [Compound 8ao, 3-Chloro-7-((4-(4-fluorophenyl)piperazin-1-yl)methyl)-2-methylquinolin-4(1H)-one] the “No. of Cures” value [1, 11] was 0/5, the “% Inhibition Day 6 PI” value [1, 16] was “low inhibition” and the EC50 [2, 12] was 52.1 nM. The chromatographic logD [7] was 2.73, the solubility [8, 17] was ≥ 80 µM and the solubility [8, 18] was 1 to 19.9 µM (≈ 0.386 to 7.68 µg/mL). The EC50 ([4]; read-out: EC50 W2 (nM)) was 38.5 nM and the EC50 ([3]; J774, read-out: EC50 J774 (μM)) was > 20 µM.

In the case of `COC(=O)c1c[nH]c2cc(CN3CCN(c4ccc(C(F)(F)F)cc4)CC3)c(C)cc2c1=O` [Compound 8v, Methyl 6-methyl-4-oxo-7-((4-(4-(trifluoromethyl)phenyl)piperazin-1-yl)methyl)-1,4-dihydroquinoline-3-carboxylate], the “No. of Cures” value [1, 11] is reported as 3 of the 5 and 3/5, the EC50 [2, 12] is reported as 101 nM and the RI ([2]; RI = EC50 TM90-C2B/EC50 W2) is reported as 1530. The chromatographic logD [7] was 3.73, the solubility [8, 14] was ≥ 80 µM and the solubility [8, 15] was 1 to 19.9 µM (≈ 0.459 to 9.14 µg/mL). The EC50 ([4]; read-out: EC50 W2) was 0.066 nM, the EC50 ([4]; read-out: EC50 W2 (nM)) was 0.066 nM and the inhibition in vivo at 50 mg/kg [6] was > 85%. For the same molecule, the “activities in these scout assays” value [6] was “excellent activities”, the “% Inhibition Day 3 PI” value [6] was “full inhibition” and the “% Inhibition Day 6 PI” value [6] was “completely inhibited parasite growth”. The EC50 ([3]; J774, read-out: EC50 J774 (μM)) was > 20 µM.

With `CCCCc1cc2c(=O)c(Br)c(C)[nH]c2cc1OCCOc1ccccc1` [Compound 16c, 3-Bromo-6-butyl-2-methyl-7-(2-phenoxyethoxy)quinolin-4(1H)-one] the “day mice were sacrificed” value [1] was 13, the “% inhibition on day 6 PE” value [1] was 61% and the EC50 [2, 12] was 12.2 nM. The EC50 [9] was 2.12 nM, the “fold more soluble in comparison to 6b” value ([8]; Example 2) was “approximately 10” and the EC50 ([4]; read-out: EC50 W2 (nM)) was 2.6 nM. The “% inhibition on day 6 PE” value [6, 13] was 49.5% and the “resistance index (RI)” value [10] was 4.69.
